Assay results published in patent US20120190666A1, “Heteroaryl Compounds as PIKK Inhibitors” (Amgen Inc., priority 2009, published 2012).

target: T1, PI3Kα (Homo sapiens, UniProt P42336); experiment: In vitro PI3K AlphaScreen assay, PI3Kα; format: biochemical; settings: PI(4,5)P2 substrate, 20 minutes at room temperature, read-out: P13Kalpha IC50 um
T1 construct: Full length p110 subunits of PI3K α, β and δ, N-terminally labeled with polyHis tag; polyHis (N); made in house; host or cells: Sf9 insect cells (baculovirus)
T1 sequence (P42336 whole entry): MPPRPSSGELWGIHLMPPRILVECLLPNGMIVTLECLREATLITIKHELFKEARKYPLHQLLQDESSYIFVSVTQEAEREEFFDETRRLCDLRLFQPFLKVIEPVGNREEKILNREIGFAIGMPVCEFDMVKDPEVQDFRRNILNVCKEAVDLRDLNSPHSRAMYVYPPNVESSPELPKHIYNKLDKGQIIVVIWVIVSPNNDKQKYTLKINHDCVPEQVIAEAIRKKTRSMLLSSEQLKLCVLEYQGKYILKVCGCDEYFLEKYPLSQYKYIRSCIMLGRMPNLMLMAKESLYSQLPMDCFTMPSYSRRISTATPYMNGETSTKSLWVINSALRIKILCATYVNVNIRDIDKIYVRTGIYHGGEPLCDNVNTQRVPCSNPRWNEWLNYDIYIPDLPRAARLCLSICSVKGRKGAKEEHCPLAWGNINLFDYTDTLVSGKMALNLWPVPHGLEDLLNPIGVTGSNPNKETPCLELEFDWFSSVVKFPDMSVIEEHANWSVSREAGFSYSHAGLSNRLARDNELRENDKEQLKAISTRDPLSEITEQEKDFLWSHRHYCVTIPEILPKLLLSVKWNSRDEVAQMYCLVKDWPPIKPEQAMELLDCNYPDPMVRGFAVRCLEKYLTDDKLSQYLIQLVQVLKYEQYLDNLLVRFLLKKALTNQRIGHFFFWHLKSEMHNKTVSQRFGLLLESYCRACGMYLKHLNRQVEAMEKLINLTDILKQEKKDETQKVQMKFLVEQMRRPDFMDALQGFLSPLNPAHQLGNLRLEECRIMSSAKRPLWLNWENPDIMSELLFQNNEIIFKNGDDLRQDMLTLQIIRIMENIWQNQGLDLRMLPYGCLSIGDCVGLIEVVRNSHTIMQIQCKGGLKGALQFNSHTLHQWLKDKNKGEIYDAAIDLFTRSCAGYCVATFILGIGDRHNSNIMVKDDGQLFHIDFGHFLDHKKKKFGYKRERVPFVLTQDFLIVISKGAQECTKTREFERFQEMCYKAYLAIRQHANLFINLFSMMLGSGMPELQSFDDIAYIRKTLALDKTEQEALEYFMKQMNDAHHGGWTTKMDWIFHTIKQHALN
T1 sequence (P27986 whole entry partner): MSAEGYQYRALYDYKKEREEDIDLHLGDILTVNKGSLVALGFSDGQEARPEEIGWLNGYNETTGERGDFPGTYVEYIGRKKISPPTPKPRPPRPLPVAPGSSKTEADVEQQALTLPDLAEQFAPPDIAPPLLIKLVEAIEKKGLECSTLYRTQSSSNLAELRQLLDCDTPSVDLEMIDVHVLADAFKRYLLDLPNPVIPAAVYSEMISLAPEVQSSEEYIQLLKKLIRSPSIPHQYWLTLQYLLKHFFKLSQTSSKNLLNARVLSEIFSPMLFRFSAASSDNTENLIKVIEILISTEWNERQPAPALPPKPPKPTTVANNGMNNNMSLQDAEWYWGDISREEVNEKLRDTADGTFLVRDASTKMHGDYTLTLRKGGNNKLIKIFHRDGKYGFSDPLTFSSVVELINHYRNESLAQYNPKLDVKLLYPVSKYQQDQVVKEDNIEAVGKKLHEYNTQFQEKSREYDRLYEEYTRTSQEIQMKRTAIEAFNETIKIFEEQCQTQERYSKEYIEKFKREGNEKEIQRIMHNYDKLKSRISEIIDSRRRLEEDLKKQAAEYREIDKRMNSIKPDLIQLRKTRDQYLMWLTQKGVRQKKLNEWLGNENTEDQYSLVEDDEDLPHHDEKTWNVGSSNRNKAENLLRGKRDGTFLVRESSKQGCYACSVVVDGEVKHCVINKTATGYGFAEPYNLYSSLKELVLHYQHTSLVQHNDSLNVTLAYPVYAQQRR
Experimental: The PI3K AlphaScreen® assay (PerkinElmer, Waltham, Mass.) measures the activity of a panel of four phosphoinositide 3-kinases: PI3Kα, PI3KIβ, PI3Kγ, and PI3Kδ. Each of these enzymes phosphorylates the 3′-hydroxyl group on phosphatidylinositiol (4,5)-bisphosphate (PIP2) to produce phosphatidylinositol (3,4,5)-trisphosphate (PIP3). This phosphorylation activity is measured using a GST-tagged PIP3 binding protein (Echelon Biosciences, Salt Lake City, Utah), an anti-GST-tagged Acceptor bead, and streptavidin-Donor bead. The interaction of biotinylated-PIP3 analog (IP4) and the PIP3 binding protein brings both Acceptor and Donor beads together producing, upon excitation of the Donor beads at 680 nm, a singlet oxygen species leading to the luminescent AlphaScreen® signal. When PIP3 is produced via phosphorylation of PIP2 by a PI3K, PIP3 competes with biotinylated-PIP3 analog (IP4) for binding to the PIP3 binding protein. In the absence of this interaction, proximity of the Donor and Acceptor beads is decreased, producing a loss of luminescent signal which is […] to PI3K activity. […] The enzyme reaction buffer is made using sterile water (Baxter, Deerfield, Ill.) and 50 mM Tris HCl pH 7, 14 mM MgCl2, 2 mM sodium cholate, and 100 mM NaCl. 2 mM DTT is added fresh the day of the experiment. The AlphaScreen® reaction buffer is made using sterile water and 10 mM Tris HCl pH 7.5, 150 mM NaCl, 0.10% Tween 20, and 30 mM EDTA. 1 mM DTT is added fresh the day of the experiment. The source plates for this assay are 384-well Greiner clear polypropylene plates containing test compounds at 5 mM and diluted 1:2 over 22 points. Columns 23 and 24 contain only DMSO as these are designated for positive and negative controls. Source plates are replicated into 384-well Optiplates (PerkinElmer, Waltham, Mass.), 0.5 μL/well, to make assay-ready plates. The different PI3K isoforms are each diluted in enzyme reaction buffer to 2× working solutions. PI3Kα is diluted to 1.6 nM, PI3Kβ is diluted to 0.8 nM, PI3Kγ is diluted to 15 nM, and PI3Kδ is diluted to 1.6 nM. Two different 2× substrate solutions are made in enzyme reaction buffer. In one solution, PI(4,5)P2 (Echelon Biosciences, Salt Lake City, Utah) is diluted to 10 μM and ATP is diluted to 20 μM. This solution is used in the assays testing PI3Kα and PI3Kβ. In a second solution, PI(4,5)P2 is diluted to 10 μM and ATP is diluted to 80 μM. This solution is used in the assays testing PI3Kγ and PI3Kδ. The AlphaScreen® reaction solutions are made using beads from the anti-GST AlphaScreen® kit (PerkinElmer, Waltham, Mass.). Two solutions are made in Alphascreen reaction buffer to 4× working concentrations. In one solution, biotinylated-IP4 (Echelon Biosciences, Salt Lake City, Utah) is diluted to 40 nM and streptavadin-Donor Beads are diluted to 80 μg/mL. In the second solution, PIP3-binding protein (Echelon Biosciences, Salt Lake City, Utah) is diluted to 40 nM and anti-GST-Acceptor Beads are diluted to 80 μg/mL. 10 μL/well of enzyme reaction buffer is added to Column 24 of the assay ready plates in place of enzyme. This is done for plates in the PI3Kα, β, and δ assays. Using a 384-well dispensing Multidrop (Titertek, Huntsville, Ala.), 10 μL/well of 2× enzyme (PI3Kα, β, δ) is added to Columns 1-23 of the appropriate assay ready plates (for PI3Kγ 10 μL is added to Columns 1-24). 10 μL/well of the appropriate substrate solution (the solution with 20 μM ATP for PI3Kα and β assays, and the solution with […] for PI3Kγ and δ assays) is then added to Columns 1-24 of the plates. Plates are then incubated at room temperature for 20 minutes. In the dark, 10 μL/well of the Donor Bead solution is added to Columns 1-24 of the plates to quench the enzyme reaction. The plates are incubated at room temperature for 30 minutes. Still in the dark, 10 μL/well of the Acceptor Bead solution is also added to Columns 1-24 of the plates. The plates are then incubated in the dark for 1.5 hours.

Row | Structure (SMILES) | IC50
1 | Cc1nc(N)nc(-c2c(Nc3cc[nH]n3)nc3ccccn23)n1 [Cpd 1, 3-(4-amino-6-methyl-1,3,5-triazin-2-yl)-N-(1H-pyrazol-3-yl)imidazo[1,2-a]pyridin-2-amine] | 820 nM
2 | Cc1nc(-c2c(Nc3cccc(O)c3)nc3ccccn23)c2nc[nH]c2n1 [Cpd 2] | 20 nM
3 | CNc1nc(C)nc(-c2c(Nc3cc[nH]n3)nc3ccccn23)n1 [Cpd 3, 3-(4-methyl-6-(methylamino)-1,3,5-triazin-2-yl)-N-(1H-pyrazol-3-yl)imidazo[1,2-a]pyridin-2-amine] | 820 nM
4 | Cc1nc(N)cc(-c2c(Nc3cc[nH]n3)nc3cccnn23)n1 [Cpd 7, 3-(6-amino-2-methylpyrimidin-4-yl)-N-(1H-pyrazol-3-yl)imidazo[1,2-b]pyridazin-2-amine] | 830 nM
5 | Cc1nc(N)cc(-n2nc(C(=O)Nc3cccnc3)cc2Nc2ccn[nH]2)n1 [Cpd 11, 5-(1H-pyrazol-5-ylamino)-1-(6-amino-2-methylpyrimidin-4-yl)-N-(pyridin-3-yl)-1H-pyrazole-3-carboxamide] | 660 nM
6 | Cc1nc(N)cc(-n2nc(C(=O)N3CCOCC3)cc2Nc2ccn[nH]2)n1 [Cpd 13, (5-(1H-pyrazol-5-ylamino)-1-(6-amino-2-methylpyrimidin-4-yl)-1H-pyrazol-3-yl)(morpholino)methanone] | 1120 nM
7 | CNC(=O)c1cc(Nc2ccn[nH]2)n(-c2cc(N)nc(C)n2)n1 [Cpd 14, 5-(1H-pyrazol-5-ylamino)-1-(6-amino-2-methylpyrimidin-4-yl)-N-methyl-1H-pyrazole-3-carboxamide] | 2350 nM
8 | CCOC(=O)c1cc(Nc2cc[nH]n2)n(-c2cc(N)nc(C)n2)n1 [Cpd 15, ethyl 5-(1H-pyrazol-3-ylamino)-1-(6-amino-2-methylpyrimidin-4-yl)-1H-pyrazole-3-carboxylate] | 340 nM
9 | Cc1nc(N)cc(-n2nc(C(=O)NC3CC3)cc2Nc2cc[nH]n2)n1 [Cpd 16, 5-(1H-pyrazol-5-ylamino)-1-(6-amino-2-methylpyrimidin-4-yl)-N-cyclopropyl-1H-pyrazole-3-carboxamide] | 2380 nM
10 | Cc1cc(Nc2cc[nH]n2)n(-c2cc(N)nc(C)n2)n1 [Cpd 18, 6-(5-(1H-pyrazol-3-ylamino)-3-methyl-1H-pyrazol-1-yl)-2-methylpyrimidin-4-amine] | 3230 nM
11 | COc1ccc(Nc2cc(C)nn2-c2cc(N)nc(C)n2)cn1 [Cpd 24, 6-(5-(6-methoxypyridin-3-ylamino)-3-methyl-1H-pyrazol-1-yl)-2-methylpyrimidin-4-amine] | 790 nM
12 | Cc1nc(Nc2ccccc2F)cc(-c2c(Nc3cc[nH]n3)nc3cccnn23)n1 [Cpd 31, 3-(6-((2-fluorophenyl)amino)-2-methyl-4-pyrimidinyl)-N-1H-pyrazol-3-ylimidazo[1,2-b]pyridazin-2-amine] | 2760 nM
13 | COc1ccc(Nc2cc(-c3c(Nc4cc[nH]n4)nc4cccnn34)nc(C)n2)cc1 [Cpd 33] | 660 nM
14 | Cc1nc(Nc2cccnn2)cc(-c2c(Nc3ccn(C)n3)nc3cccnn23)n1 [Cpd 34, N-(1-methyl-1H-pyrazol-3-yl)-3-(2-methyl-6-(3-pyridazinylamino)-4-pyrimidinyl)imidazo[1,2-b]pyridazin-2-amine] | 750 nM
15 | Cc1nc(Nc2ccc(N3CCN(C)CC3)nn2)cc(-c2c(Nc3cc[nH]n3)nc3cccnn23)n1 [Cpd 35, 3-(2-methyl-6-((6-(4-methyl-1-piperazinyl)-3-pyridazinyl)amino)-4-pyrimidinyl)-N-1H-pyrazol-3-ylimidazo[1,2-b]pyridazin-2-amine] | 110 nM
16 | CCNC(=O)Nc1ccc(Nc2nc3ccccn3c2-c2cc(N)nc(C)n2)cc1 [Cpd 40, 1-(4-((3-(6-amino-2-methyl-4-pyrimidinyl)imidazo[1,2-a]pyridin-2-yl)amino)phenyl)-3-ethylurea] | 450 nM
17 | Cc1nc(N)cc(-c2c(Nc3ccc4cc[nH]c4n3)nc3ccccn23)n1 [Cpd 41, 3-(6-amino-2-methyl-4-pyrimidinyl)-N-1H-pyrrolo[2,3-b]pyridin-6-ylimidazo[1,2-a]pyridin-2-amine] | 43200 nM
18 | Cc1nc(Nc2ccc(N3CCOCC3)nn2)cc(-c2c(Nc3cc[nH]n3)nc3ccccn23)n1 [Cpd 49, 3-(2-methyl-6-((6-(4-morpholinyl)-3-pyridazinyl)amino)-4-pyrimidinyl)-N-1H-pyrazol-3-ylimidazo[1,2-a]pyridin-2-amine] | 130 nM
19 | COCCOc1cnnc(Nc2cc(-c3c(Nc4ccc(NC(C)=O)cc4)nc4cccnn34)nc(C)n2)c1 [Cpd 53, N-(4-((3-(6-((5-(2-methoxyethoxy)-3-pyridazinyl)amino)-2-methyl-4-pyrimidinyl)imidazo[1,2-b]pyridazin-2-yl)amino)phenyl)acetamide] | 20 nM
20 | Cc1nc(N)cc(-c2c(Nc3ccc(NC(=O)Nc4ccncc4)cc3)nc3ccccn23)n1 [Cpd 57, 1-(4-((3-(6-amino-2-methyl-4-pyrimidinyl)imidazo[1,2-a]pyridin-2-yl)amino)phenyl)-3-(4-pyridinyl)urea] | 10 nM
21 | Cc1nc(Nc2cc(OCC(F)(F)F)cnn2)cc(-c2c(Nc3cc[nH]n3)nc3cccnn23)n1 [Cpd 60, 3-(2-methyl-6-((5-(2,2,2-trifluoroethoxy)-3-pyridazinyl)amino)-4-pyrimidinyl)-N-1H-pyrazol-3-ylimidazo[1,2-b]pyridazin-2-amine] | 39200 nM
22 | CC(=O)Nc1cc(-c2c(Nc3ccn(C)n3)nc3c(F)cccn23)nc(C)n1 [Cpd 63, N-(6-(8-fluoro-2-((1-methyl-1H-pyrazol-3-yl)amino)imidazo[1,2-a]pyridin-3-yl)-2-methyl-4-pyrimidinyl)acetamide] | 2040 nM
23 | Cc1nc(N)cc(-c2c(Nc3ccn(C)n3)nc3ccc(-c4cccc(S(C)(=O)=O)c4)cn23)n1 [Cpd 65, 3-(6-amino-2-methyl-4-pyrimidinyl)-N-(1-methyl-1H-pyrazol-3-yl)-6-(3-(methylsulfonyl)phenyl)imidazo[1,2-a]pyridin-2-amine] | 8690 nM
24 | CC(=O)n1ccc(Nc2nc3cccnn3c2-c2cc(N)nc(C)n2)n1 [Cpd 67, N-(1-acetyl-1H-pyrazol-3-yl)-3-(6-amino-2-methyl-4-pyrimidinyl)imidazo[1,2-b]pyridazin-2-amine] | 750 nM
25 | COCCOc1ccc2nc(Nc3cc[nH]n3)c(-c3cc(N)nc(C)n3)n2n1 [Cpd 69, 3-(6-amino-2-methyl-4-pyrimidinyl)-6-(2-methoxyethoxy)-N-1H-pyrazol-3-ylimidazo[1,2-b]pyridazin-2-amine] | 90 nM
26 | CNc1cc(-c2c(Nc3cc[nH]n3)nc3ccc(N4CCOCC4)nn23)nc(C)n1 [Cpd 72, 3-(2-methyl-6-(methylamino)-4-pyrimidinyl)-6-(4-morpholinyl)-N-1H-pyrazol-3-ylimidazo[1,2-b]pyridazin-2-amine] | 110 nM
27 | Cc1nc(N)cc(-c2c(Nc3cc[nH]n3)nc3ccc(OCCN4CCCC4)nn23)n1 [Cpd 73] | 800 nM
28 | Cc1nc(NC(=O)N(C)C)cc(-c2c(Nc3cc[nH]n3)nc3cccnn23)n1 [Cpd 75, 1,1-dimethyl-3-(2-methyl-6-(2-(1H-pyrazol-3-ylamino)imidazo[1,2-b]pyridazin-3-yl)-4-pyrimidinyl)urea] | 42100 nM
